Patent publication US6894075B2, “4′-demethyl-4′-O-substituted-1-deoxypodophyllotoxin derivative and geometric isomer thereof, process for the preparation thereof and anti-cancer composition comprising the same” (priority 2000, dated 2005)
Values joined by “and” are separate entries in the source; they are usually repeats but may differ in a detail not shown here. Identical values can stand only once. Like-named read-outs stand apart in the source and are kept apart here.

Experiments:
[1] = system: Lewis Lung Cancer Cell (LLC); assay: Anti-cancer test for BDF1 mouse transplanted by Lewis Lung Cancer Cell, Experiment 2-1 (formulae 1a, 1b); format: in vivo; conditions: peritoneal injection 0.06 mmole/kg/day at days 1, 2, 4, 7, 8 (etoposide 36 mg/kg), cancer volume at 14 to 16 days
Source text: In order to evaluate the anti-cancer activity of the compounds of the present invention, LLC, which is a lung cancer cell of mouse, was transplanted into the hypodermic region of BDF1 mouse to induce a solid cancer. […] Experiment for the compounds of formulae (1a) and (1b) and that for the compound of formula (1c) were separately carried out.
Male BDF1 mouse (Weight 18 to 25 g), being in good health and purchased from Korea Biolink Co., was used as a test animal.
The mice were bred at a place controlled to the temperature of 23 to 24° C. while provided with water and feed ad libitum. As the feed, feed for mouse containing no antibiotics was used. The hypodermic tissue of C57BL/6 mouse, which includes cells cultured therein for 14 days, was taken up. Sterilized cold physiological saline was added to the tissue in the amount of 5 ml/g tissue to make a cell suspension. This cell suspension of 0.2 ml was transplanted into the hypodermic region of armpit of BDF1 mouse.
(§1) Each group includes 5 mice. After 24 hours from the transplantation, each test compound of formulae (1a) and (1b) was dissolved in 4% Tween 80 and injected peritoneally in the amount of 0.2 ml and in a concentration of 0.06 mmole/kg/day (that is, 0.06 mmole of each test compound was dissolved in 10 ml of 4% Tween 80, and then 0.2 ml of the resulting solution was peritoneally injected into a mouse). Only 4% Tween 80 was injected for the negative control group, and the same moles of etoposide (36 mg/kg) was injected for the positive control group. The injection was performed five times at 1, 2, 4, 7 and 8 days from the transplantation of cancer.
The anti-cancer effect was determined by measuring the volume of cancer of the control and test groups at 14 to 16 days from the administration of drugs and then calculated as follows. Volume of Cancer(mm^3)=Length(mm)×Width^2(mm^2)/2 Suppression Rate of Cancer Growth(%)=(C−T)×100(%)/C in which • C represents the average volume of cancer (mm^3) of the control group, and • T represents the average volume of cancer (mm^3) of the test group.

[2] = system: mouse leukemia cell line L1210; conditions: L1210 transplanted into CDF1 mouse, compared with the negative control (Terada et al. 1992); cited from earlier work
[3] = system: A549 cell; assay: Cytotoxicity test (SRB method) for A549 cells; format: cell-based, human; conditions: for EC50: read-out: ED50(nM) for A549
Procedure, shortened: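 SRB assay: cells seeded 24 h at 37 °C, then exposed 48 h to samples at 0.1, 0.03, 0.01 and 0.003 mg/ml final. TCA-fixed, SRB-stained, OD read at 520 nm. Growth is calculated against time-zero and untreated controls, and ED50 is the concentration giving 50% growth inhibition, obtained by regression.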

[4] = Weight change in the period of drug administration; format: in vivo, mouse; conditions: for Weight of mouse, Day 1: Day 1 from the cancer cell transplantation; for Weight of mouse, Day 2: Day 2 from the cancer cell transplantation; for Weight of mouse, Day 3: Day 3 from the cancer cell transplantation; for Weight of mouse, Day 4: Day 4 from the cancer cell transplantation; for Weight of mouse, Day 5: Day 5 from the cancer cell transplantation; for Weight of mouse, Day 6: Day 6 from the cancer cell transplantation; for Weight of mouse, Day 7: Day 7 from the cancer cell transplantation; for Weight of mouse, Day 8: Day 8 from the cancer cell transplantation
Procedure: as §1
As an index of toxicity, the weight change during the period of drug administration was recorded for the compounds of formulae (1a) and (1b) compared with the comparison compound of Etoposide.

[5] = A549 human lung cancer cell, SRB, 48 hours incubation

SMILES	Suppression Rate for LLC [1]	extension effect of life span [2]	EC50 ([3]; Homo sapiens, A549, 48 h)	Weight of mouse, Day 1 [4]	Weight of mouse, Day 2 [4]	Weight of mouse, Day 3 [4]	Weight of mouse, Day 4 [4]	Weight of mouse, Day 5 [4]	Weight of mouse, Day 6 [4]	Weight of mouse, Day 7 [4]	Weight of mouse, Day 8 [4]	EC50 [3, 5]	weight loss ([4]; compared with the control group, 8 days)	ED50(mg/mL) for A549 ([3]; A549, SRB, 48 hours incubation, Table 2)
COc1cc([C@@H]2c3cc4c(cc3C[C@H]3COC(=O)[C@@H]32)OCO4)cc(OC)c1OC [DPT, Deoxypodophyllotoxin]	60% and 60.2%	about 12%	75.5 nM	23.1 g	23.9 g	24 g	24 g	24.4 g	25 g	25 g	24.9 g			
COc1cc(C2c3cc4c(cc3CC3COC(=O)C32)OCO4)cc(OC)c1OC(=O)CCCN (centres unmarked) [Compound 1a-11, 4′-demethyl-4′-O-(4-aminobutanoyl)-1-deoxypodophyllotoxin]	82%			22.8 g	24 g	24.2 g	25 g	24.4 g	25.4 g	25.4 g	25.5 g	91.6 nM		
COc1cc(C2c3cc4c(cc3CC3COC(=O)C32)OCO4)cc(OC)c1OC(=O)CCCCCCN (centres unmarked) [Compound 1a-14, 4′-demethyl-4′-O-(7-aminoheptanoyl)-1-deoxypodophyllotoxin]	90%			23 g	23.8 g	21.6 g	26 g	22.3 g	22.8 g	22.8 g	22.5 g	79.6 nM	about 0.5 g/mouse	
COc1cc(C2c3cc4c(cc3CC3COC(=O)C32)OCO4)cc(OC)c1OC(=O)NCCCl (centres unmarked) [Compound 1b-3, 4′-demethyl-4′-O-(2-chloroethylcarbamoyl)-1-deoxypodophyllotoxin]	75%			23.3 g	23 g	23.6 g	24.5 g	26 g	25 g	26 g	25.8 g	92 nM		
COc1cc(C2c3cc4c(cc3CC3COC(=O)C32)OCO4)cc(OC)c1OC(=O)CCCCCN (centres unmarked) [Compound 1a-13, 4′-demethyl-4′-O-(6-aminohexanoyl)-1-deoxypodophyllotoxin]	85% and 85.5%			23 g	24.2 g	25 g	25.2 g	25 g	25.5 g	26 g	26.2 g	88.5 nM		
COc1cc(C2c3cc4c(cc3CC3COC(=O)C32)OCO4)cc(OC)c1OC(=O)NC1CCCCC1 (centres unmarked) [Compound 1b-4, 4′-demethyl-4′-O-cyclohexylcarbamoyl-1-deoxypodophyllotoxin]	88%			23 g	23.9 g	25 g	26 g	25 g	26 g	26 g	25.5 g	163 nM		
COc1cc([C@@H]2c3cc4c(cc3[C@@H](O[C@@H]3O[C@@H]5CO[C@@H](C)O[C@H]5[C@H](O)[C@H]3O)[C@H]3COC(=O)[C@H]23)OCO4)cc(OC)c1O [Etoposide, reference compound]	90% and 90.8%			23 g	24 g	25.1 g	26 g	25.9 g	26.3 g	25.6 g	26.6 g	1990 nM		1.102 mg/mL
COc1cc(C2c3cc4c(cc3CC3COC(=O)C32)OCO4)cc(OC)c1OC(=O)NC(C)C (centres unmarked) [Compound 1b-2, 4′-demethyl-4′-O-isopropylcarbamoyl-1-deoxypodophyllotoxin]	90% and 90.1%			22.8 g	23.6 g	23.2 g	25 g	25 g	26.1 g	26 g	26 g	153 nM		
